Source: PubChem BioAssay AID192 (DTP/NCI, 2004)
Inconclusive results and toxic doses are left out. Rule for the calls: active = survival T/C of 150% or more; inactive = T/C below 125% in these data.

System: BDF1 mice, B16 melanoma ip, median survival T/C
Assay: NCI In Vivo Anticancer Drug Screen. Data for tumor model B16 Melanoma (intraperitoneal) in B6D2F1 (BDF1) mice
Settings: endpoint: median survival time, higher = longer survival
Outline: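 Antitumor activity is assessed in mice bearing a transplanted tumor, with survival or tumor size compared against vehicle-dosed controls and expressed as T/C.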

Measured: T/C

COC(=O)C(N)Cc1ccc(O)c(O)c1 (configuration not stated)
inactive: dose: 25.0 mg/kg/injection, schedule: Q08HX018 (ip), vehicle: water 122 % of control | dose: 50.0 mg/kg/injection, schedule: Q08HX018 (ip), vehicle: water 111 % of control | dose: 50.0 mg/kg/injection, schedule: Q08HX030 (ip), vehicle: saline 99 % of control | dose: 100.0 mg/kg/injection, schedule: Q01DX012 (ip), vehicle: saline 102 % of control | dose: 100.0 mg/kg/injection, schedule: Q01DX014 (ip), vehicle: saline 102 % of control | dose: 100.0 mg/kg/injection, schedule: Q08HX018 (ip), vehicle: water 110 % of control | dose: 100.0 mg/kg/injection, schedule: Q08HX030 (ip), vehicle: saline 104 % of control | dose: 200.0 mg/kg/injection, schedule: Q01DX012 (ip), vehicle: saline 104 % of control | dose: 200.0 mg/kg/injection, schedule: Q01DX014 (ip), vehicle: saline 104 % of control | dose: 200.0 mg/kg/injection, schedule: Q08HX018 (ip), vehicle: water 113 % of control | dose: 200.0 mg/kg/injection, schedule: Q08HX030 (ip), vehicle: saline 111 % of control | dose: 400.0 mg/kg/injection, schedule: Q01DX012 (ip), vehicle: saline 120 % of control | dose: 400.0 mg/kg/injection, schedule: Q01DX014 (ip), vehicle: saline 118 % of control | dose: 400.0 mg/kg/injection, schedule: Q08HX030 (ip), vehicle: saline 107 % of control

COCc1cc(C(C)(C)C)c(O)c(C(C)(C)C)c1
inactive: dose: 100.0 mg/kg/injection, schedule: Q01DX009 (ip), vehicle: Klucel (hydroxypropylcellulose) (HPC) 90 % of control | dose: 200.0 mg/kg/injection, schedule: Q01DX009 (ip), vehicle: Klucel (hydroxypropylcellulose) (HPC) 92 % of control | dose: 400.0 mg/kg/injection, schedule: Q01DX009 (ip), vehicle: Klucel (hydroxypropylcellulose) (HPC) 95 % of control
